Assay results taken from patent EP4467141A1, “PYRAZOLO-QUINOLINES AS SELECTIVE INHIBITORS OF GENOTOXIC STRESS-INDUCED IKK/NF- KB PATHWAYS FOR CANCER THERAPY” (Max-Delbrück-Centrum für Molekulare Medizin in der …, priority 2023, dated 2024).
Where two headings read alike, the source gives them in different places.

What was measured:
Experiment in all cases: Kinase panel study
Format in all cases: biochemical
CLK4 = molecular target: T1, CLK4 (Homo sapiens, UniProt Q9HAZ1)
T1 construct: purchased Thermo Fisher Scientific
Method: The Kinase panel study was entirely provided by Thermo Fisher Scientific using the two lead compounds MW01 and MW05 as well as their derivatives (MW01-E06, MW01-E10, MW01-E14, MW01-E18, MW05-E2, MW05-E3, MW05-E9 and MW05-E10. The experiment was performed using the ZLyte or Adapta protocol according to manufacturer standard operating procedures.
Based on their similar effects in our screen and molecular analysis, MW01 and MW05 were used in comparative target deconvolution studies seeking common targets despite their distinct structures. To eliminate previously identified kinases regulating NF-κB activity, such as IKK, as possible targets of MW01 and MW05, an in vitro kinase inhibition assay was performed. […] We next investigated if any of the shared kinase targets of MW01 and MW05 play a role in genotoxic stress-induced NF-κB activity and established several criteria to narrow down pathway-relevant targets. Considering the similar NF-κB inhibition phenotypes of both compounds, we hypothesized first that the target should be shared by both lead compounds. Second, based on the CaCo2 recovery values and experimental treatment concentration of 10 µM), the putative target kinase should have a low IC50 of, at most, 2000 nM for both lead compounds in the in vitro kinase panel (Fig. 2A). Based on these criteria alone, we arrived at a relatively short list of potential targets for further analysis, leaving only PIK3CG, PIK3C2G, and CLK2 (Fig. 2B). IC50 values for PIK3C2G by both lead compounds agreed best with these criteria, but RNA expression analysis indicates high tissue specificity as well as lack of expression of this kinase in our U2-OS model cell line, which we then eliminated from further analysis (Uhlén et al., 2015). […] Table 6: Percentage of inhibition of the indicated kinases by MW01 or MW05 at either 10 µM or 1 µM. n.d. = not determined. […]
To validate the structural backbones of MW01 and MW05 and leverage additional structures in discerning on- and off-target activity, we screened more than 30 structural derivatives for similar NF-κB pathway inhibition compared to our lead compounds following irradiation or TNF stimulation (Table 1 and 2). Several structural derivatives of each lead compound were identified which reduced p-p65 and NFKBIA expression in an irradiation-specific manner. (Fig 3A, B, C, Fig. 8). […] As expected for structurally similar derivatives, kinase inhibition profiles of active derivatives were similar to the respective lead compounds, validating the common structural backbones of each as kinase inhibitors. However, inhibition of several kinases was lost some derivatives of MW01 and MW05, including PI3K isoforms, adding further evidence that the NF-κB inhibition by our compounds is not mediated by inhibition of these kinases. […] Considering the phenotypic similarity between two structurally distinct lead compounds, the agreement of the derivatives with our kinase IC50 criteria, and significant results following siRNA knockdown of CLK2 and CLK4, we proceeded to further characterize our lead compounds.

ALK = molecular target: T2, ALK (Homo sapiens, UniProt Q9UM73); conditions: for inhibition at 1 µM: 1000nM
T2 construct: purchased Thermo Fisher Scientific
Method in brief: (§1)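 Kinase inhibition was determined by a contract provider in cell-free ZLyte or Adapta assays. Results are expressed as % inhibition at 10 or 1 µM.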

IRAK1 = molecular target: T3, IRAK1 (Homo sapiens, UniProt P51617); conditions: for inhibition at 1 µM: 1000nM
T3 construct: purchased Thermo Fisher Scientific
Method in brief: as §1

FLT3 = molecular target: T4, FLT3 (Homo sapiens, UniProt P36888); conditions: for inhibition at 1 µM: 1000nM
T4 construct: purchased Thermo Fisher Scientific
T4 sequence (P36888 27-993): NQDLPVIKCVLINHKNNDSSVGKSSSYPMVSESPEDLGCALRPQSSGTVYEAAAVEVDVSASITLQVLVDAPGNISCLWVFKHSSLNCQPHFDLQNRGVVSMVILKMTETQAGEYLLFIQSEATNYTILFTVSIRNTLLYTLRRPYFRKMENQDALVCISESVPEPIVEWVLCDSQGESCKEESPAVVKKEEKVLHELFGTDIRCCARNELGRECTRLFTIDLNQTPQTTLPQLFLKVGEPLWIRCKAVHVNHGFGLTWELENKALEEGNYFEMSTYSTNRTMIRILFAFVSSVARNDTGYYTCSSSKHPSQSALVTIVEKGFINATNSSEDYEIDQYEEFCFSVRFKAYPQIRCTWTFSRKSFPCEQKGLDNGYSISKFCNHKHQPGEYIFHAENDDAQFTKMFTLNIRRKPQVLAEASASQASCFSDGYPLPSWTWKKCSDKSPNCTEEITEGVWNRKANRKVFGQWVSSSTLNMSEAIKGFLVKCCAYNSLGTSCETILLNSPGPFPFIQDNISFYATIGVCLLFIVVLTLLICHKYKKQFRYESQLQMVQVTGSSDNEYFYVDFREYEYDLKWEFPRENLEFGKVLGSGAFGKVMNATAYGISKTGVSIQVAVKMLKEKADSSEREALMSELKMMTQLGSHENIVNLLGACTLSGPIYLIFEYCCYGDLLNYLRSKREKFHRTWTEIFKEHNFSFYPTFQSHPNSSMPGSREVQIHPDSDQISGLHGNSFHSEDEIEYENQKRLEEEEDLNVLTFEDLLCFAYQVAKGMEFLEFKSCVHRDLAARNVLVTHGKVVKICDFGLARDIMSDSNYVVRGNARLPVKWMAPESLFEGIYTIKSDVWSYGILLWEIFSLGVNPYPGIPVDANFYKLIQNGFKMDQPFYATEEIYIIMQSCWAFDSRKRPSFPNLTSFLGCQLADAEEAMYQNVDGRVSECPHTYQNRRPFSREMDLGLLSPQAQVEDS
Method in brief: as §1

[1] = 10000nM, read-out: Percentage of inhibition
[2] = read-out: Percentage of inhibition
[3] = CLK4, compound at 10µM, read-out: % of Inhibition
[4] = ALK, compound at 10µM, read-out: % of Inhibition
[5] = IRAK1, compound at 10µM, read-out: % of Inhibition
[6] = FLT3, compound at 10µM, read-out: % of Inhibition

T1 sequence (Q9HAZ1 whole entry): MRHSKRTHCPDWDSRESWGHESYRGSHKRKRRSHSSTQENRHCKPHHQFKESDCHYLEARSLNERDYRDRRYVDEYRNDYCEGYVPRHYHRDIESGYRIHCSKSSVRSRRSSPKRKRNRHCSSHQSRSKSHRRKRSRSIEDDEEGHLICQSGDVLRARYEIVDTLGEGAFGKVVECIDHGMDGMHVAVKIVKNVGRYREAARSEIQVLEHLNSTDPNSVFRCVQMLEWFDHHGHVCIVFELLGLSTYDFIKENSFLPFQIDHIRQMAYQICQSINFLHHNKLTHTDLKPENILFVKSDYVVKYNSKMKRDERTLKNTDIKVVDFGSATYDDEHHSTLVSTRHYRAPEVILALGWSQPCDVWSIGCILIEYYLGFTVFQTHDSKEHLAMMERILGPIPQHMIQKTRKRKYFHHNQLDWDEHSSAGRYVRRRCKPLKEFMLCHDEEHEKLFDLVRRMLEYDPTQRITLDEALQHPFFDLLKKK
T2 sequence (Q9UM73 19-1620): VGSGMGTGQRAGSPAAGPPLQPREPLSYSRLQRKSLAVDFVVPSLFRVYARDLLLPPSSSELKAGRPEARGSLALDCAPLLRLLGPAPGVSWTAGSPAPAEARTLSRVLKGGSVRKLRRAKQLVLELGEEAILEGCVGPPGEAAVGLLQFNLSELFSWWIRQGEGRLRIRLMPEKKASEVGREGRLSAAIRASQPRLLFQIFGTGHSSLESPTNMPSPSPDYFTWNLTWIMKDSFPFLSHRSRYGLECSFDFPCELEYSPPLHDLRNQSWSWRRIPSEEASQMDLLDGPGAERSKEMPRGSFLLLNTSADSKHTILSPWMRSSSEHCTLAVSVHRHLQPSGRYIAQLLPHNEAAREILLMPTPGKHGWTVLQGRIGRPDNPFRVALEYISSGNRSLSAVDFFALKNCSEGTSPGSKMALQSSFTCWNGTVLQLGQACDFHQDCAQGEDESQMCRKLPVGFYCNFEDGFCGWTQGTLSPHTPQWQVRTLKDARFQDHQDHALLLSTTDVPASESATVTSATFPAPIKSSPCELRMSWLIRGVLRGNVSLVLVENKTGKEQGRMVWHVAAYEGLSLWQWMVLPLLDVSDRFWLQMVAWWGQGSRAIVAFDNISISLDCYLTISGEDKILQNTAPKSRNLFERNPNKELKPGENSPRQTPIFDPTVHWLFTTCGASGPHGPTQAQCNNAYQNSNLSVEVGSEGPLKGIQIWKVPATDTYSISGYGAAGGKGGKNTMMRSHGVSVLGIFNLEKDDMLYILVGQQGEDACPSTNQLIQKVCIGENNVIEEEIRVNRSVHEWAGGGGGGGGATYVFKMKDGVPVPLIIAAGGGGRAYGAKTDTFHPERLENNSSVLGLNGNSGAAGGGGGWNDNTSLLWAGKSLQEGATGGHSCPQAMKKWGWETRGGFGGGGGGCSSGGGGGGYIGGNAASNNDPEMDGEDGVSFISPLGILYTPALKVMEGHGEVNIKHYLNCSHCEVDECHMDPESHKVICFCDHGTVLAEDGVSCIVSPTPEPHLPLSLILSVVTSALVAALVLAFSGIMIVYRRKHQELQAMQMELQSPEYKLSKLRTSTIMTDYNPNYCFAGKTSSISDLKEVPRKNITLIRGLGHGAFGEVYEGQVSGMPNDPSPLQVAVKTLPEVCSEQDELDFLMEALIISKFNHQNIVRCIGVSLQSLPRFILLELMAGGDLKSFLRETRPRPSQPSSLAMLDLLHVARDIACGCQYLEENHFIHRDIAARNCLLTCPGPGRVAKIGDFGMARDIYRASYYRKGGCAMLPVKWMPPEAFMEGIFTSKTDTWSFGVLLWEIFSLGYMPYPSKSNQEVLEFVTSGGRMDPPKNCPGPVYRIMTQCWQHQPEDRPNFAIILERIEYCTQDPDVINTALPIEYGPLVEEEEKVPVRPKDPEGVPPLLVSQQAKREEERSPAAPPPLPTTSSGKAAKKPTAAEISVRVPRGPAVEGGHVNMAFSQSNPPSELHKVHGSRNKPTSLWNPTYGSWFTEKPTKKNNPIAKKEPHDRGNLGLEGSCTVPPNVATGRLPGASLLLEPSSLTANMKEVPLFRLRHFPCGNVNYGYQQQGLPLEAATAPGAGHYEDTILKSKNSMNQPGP
T3 sequence (P51617 whole entry): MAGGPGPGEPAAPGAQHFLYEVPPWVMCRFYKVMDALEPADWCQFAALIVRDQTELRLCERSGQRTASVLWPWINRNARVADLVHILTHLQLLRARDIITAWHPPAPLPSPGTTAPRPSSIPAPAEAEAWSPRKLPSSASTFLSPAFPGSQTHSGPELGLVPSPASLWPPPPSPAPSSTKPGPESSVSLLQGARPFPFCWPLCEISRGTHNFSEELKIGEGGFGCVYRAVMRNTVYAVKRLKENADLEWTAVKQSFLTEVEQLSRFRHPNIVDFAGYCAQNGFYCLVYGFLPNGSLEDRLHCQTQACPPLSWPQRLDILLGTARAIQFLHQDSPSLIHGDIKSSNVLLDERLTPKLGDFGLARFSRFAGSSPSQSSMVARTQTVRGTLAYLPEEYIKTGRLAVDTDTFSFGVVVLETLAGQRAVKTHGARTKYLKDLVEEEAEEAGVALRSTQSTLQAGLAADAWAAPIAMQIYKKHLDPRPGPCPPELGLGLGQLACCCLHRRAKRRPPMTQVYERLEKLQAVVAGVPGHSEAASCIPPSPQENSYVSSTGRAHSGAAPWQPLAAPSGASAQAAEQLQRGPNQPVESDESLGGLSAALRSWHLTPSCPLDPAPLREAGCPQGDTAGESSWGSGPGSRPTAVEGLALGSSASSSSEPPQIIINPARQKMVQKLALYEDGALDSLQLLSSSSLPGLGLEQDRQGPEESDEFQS

Row | SMILES | inhibition at 10 µM (CLK4; [1]) [%] | inhibition at 1 µM (ALK; [2]) [%] | inhibition at 10 µM (ALK; [1]) [%] | inhibition at 1 µM (IRAK1; [2]) [%] | inhibition at 10 µM (IRAK1; [1]) [%] | inhibition at 1 µM (FLT3; [2]) [%] | inhibition at 10 µM (FLT3; [1]) [%] | inhibition at 10 µM (CLK4; [3]) [%] | inhibition at 10 µM (ALK; [4]) [%] | inhibition at 10 µM (IRAK1; [5]) [%] | inhibition at 10 µM (FLT3; [6]) [%]
1 | COc1ccc2c(c1OC)c(=O)n1c3ccc(O)cc3c3ccnc2c31 [MW01, 5-Hydroxy-10,11-dimethoxy-9H-benzo[c]indolo[3,2,1-ij][1,5]naphthyridin-9-one] | 91 | 18 | 40 | 57 | 67 | 61 | 86 | – | – | – | –
2 | COc1ccc2c(c1)c1ccnc3c4nc(OC)ccc4c(=O)n2c13 [MW01-E6, 5,15-dimethoxy-1,11,14-triazapentacyclo[10.7.1,0^2,7.0^8,^20.0^13,^18]icosa-2(7),3,5,8(20),9,11,13(18),14,16-nonaen-19-one] | – | – | – | – | – | – | – | 58 | 19 | 56 | 31
3 | O=c1c2cc(O)ccc2c2nccc3c4cc(O)ccc4n1c32 [MW01-E10, 5,16-dihydroxy-1,11-diazapentacyclo[10.7.1.0^2,^7.0^8,^20.0^13,^18]icosa-2(7),3,5,8(20),9,11,13(18),14,16-nonaen-19-one] | – | – | – | – | – | – | – | 99 | 75 | 71 | 27
4 | COc1ccc2c(c1)c1ccnc3c4ccnc(OC)c4c(=O)n2c13 [MW01-E14, 5,17-dimethoxy-1,11,16-triazapentacyclo[10.7.1.0^2,^7.0^8,^20.0^13,^18]icosa-2(7),3,5,8(20),9,11,13(18),14,16-nonaen-19-one] | – | – | – | – | – | – | – | 67 | 15 | 9 | 12
5 | O=c1c2cnccc2c2nccc3c4cc(O)ccc4n1c32 [MW01-E18, 5-hydroxy-1,11,16-triazapentacyclo[10.7.1.0^2,^7.0^8,^20.0^13,^18]icosa-2(7),3,5,8(20),9,11,13(18),14,16-nonaen-19-one] | – | – | – | – | – | – | – | 98 | 35 | 69 | 65
6 | COc1ccc2cc3c(N)nn(C(=O)c4cccc(N(C)C)c4)c3nc2c1 [MW05, (3-Amino-7-methoxypyrazolo[3,4-b]quinolin-1-yl)-[3-(dimethylamino)phenyl]methanone] | 94 | 0 | -2 | 17 | -7 | 2 | 6 | – | – | – | –
7 | COc1ccc2nc3c(cc2c1)c(N)nn3C(=O)c1cccc(N(C)C)c1 [MW05-E2, 1-[3-(dimethylamino)benzoyl]-6-methoxy-1H-pyrazolo[3,4-b]quinolin-3-amine] | – | – | – | – | – | – | – | 75 | 24 | 2 | 17
